Assay results reported in patent publication US6525001B1, “Substituted pyrimidine and pyridine herbicides” (Mid-American Commercialization Corporation, priority 1997, dated 2003).

Tests used:
Type in all cases: in vivo
[1] = tested on: rice (Oryza sativa); assay: Test B flood test
Method in brief: (§1)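 Flood test on plants grown to the 2-leaf stage; treated plants kept in greenhouse twelve to sixteen days, then visually rated against controls on a 0 (no effect) to 10 (complete control) scale.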

[2] = tested on: duck salad (Heteranthera limosa); assay: Test B flood test
Method in brief: as §1

[3] = tested on: smallflower flatsedge (Cyperus difformis); assay: Test B flood test
Method in brief: as §1

[4] = tested on: bamyardgrass (Echinochloa crus-galli); assay: Test B flood test
Method in brief: as §1

[5] = tested on: wheat (Triticum aestivum); assay: Test B pre-/postemergence; set-up: key: 0 is no effect; 10 is complete control
Method in brief: (§2)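 Scored visually 0 (none) to 10 (complete control) against untreated plants after twelve to sixteen greenhouse days. Test chemicals, formulated in surfactant-containing non-phytotoxic solvent, applied to soil after planting and, separately, onto 1- to 4-leaf (2–18 cm) plants.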

[6] = tested on: crabgrass (Digitaria sanguinalis); assay: Test B pre-/postemergence; set-up: key: 0 is no effect; 10 is complete control
Method in brief: as §2

[7] = tested on: rape (Brassica napus); assay: Test B pre-/postemergence; set-up: key: 0 is no effect; 10 is complete control
Method in brief: as §2

[8] = tested on: cocklebur (Xanthium strumarium); assay: Test B pre-/postemergence; set-up: key: 0 is no effect; 10 is complete control
Method in brief: as §2

[9] = tested on: corn (Zea mays); assay: Test B pre-/postemergence; set-up: key: 0 is no effect; 10 is complete control
Method in brief: as §2

[10] = tested on: blackgrass (Alopecurus myosuroides); assay: Test B pre-/postemergence; set-up: key: 0 is no effect; 10 is complete control
Method in brief: as §2

[11] = tested on: velvetleaf (Abutilon theophrasti); assay: Test B pre-/postemergence; set-up: key: 0 is no effect; 10 is complete control
Method in brief: as §2

[12] = tested on: purple nutsedge (Cyperus rotundus); assay: Test B pre-/postemergence; set-up: key: 0 is no effect; 10 is complete control
Method in brief: as §2

[13] = tested on: pigweed (Amaranthus retroflexus); assay: Test B pre-/postemergence; set-up: key: 0 is no effect; 10 is complete control
Method in brief: as §2

[14] = tested on: sugar beet (Beta vulgaris); assay: Test B pre-/postemergence; set-up: key: 0 is no effect; 10 is complete control
Method in brief: as §2

[15] = tested on: soybean (Glycine max); assay: Test B pre-/postemergence; set-up: key: 0 is no effect; 10 is complete control
Method in brief: as §2

[16] = Rate 62 g/ha, Postemergence (flood test)
[17] = Rate 125 g/ha, Postemergence, flood test
[18] = Rate 250 g/ha, Postemergence (flood test species)

Cc1cnc(-c2ccc(C(F)(F)F)cc2)nc1C(Cl)c1cccc(C(F)(F)F)c1 (racemic) [Compound 21]
1: Plant response rating, Corn ([9]; Rate 250 g/ha, Preemergence) | Blackgrass plant response rating ([10]; Rate 62 g/ha, Preemergence)
5: Plant response rating, Rice [1, 18] | Plant response rating, Ducksalad [2, 18] | Plant response rating, Wheat ([5]; Rate 250 g/ha, Postemergence) | Plant response rating, Rape ([7]; Rate 250 g/ha, Preemergence) | Plant response rating, Blackgrass ([10]; Rate 250 g/ha, Preemergence)
7: Plant response rating, Cocklebur ([8]; Rate 62 g/ha, Postemergence) | Plant response rating, Velvetleaf ([11]; Rate 62 g/ha, Postemergence) | Redroot pigweed plant response rating ([13]; Rate 62 g/ha, Preemergence) | Sugarbeets plant response rating ([14]; Rate 62 g/ha, Preemergence)
6: Plant response rating, S. Flatsedge [3, 16] | Plant response rating, Crabgrass ([6]; Rate 125 g/ha, Postemergence) | Crabgrass plant response rating ([6]; Rate 125 g/ha, Preemergence) | Plant response rating, Blackgrass ([10]; Rate 250 g/ha, Postemergence) | Plant response rating, Soybean ([15]; Rate 62 g/ha, Postemergence) | Plant response rating, Soybean ([15]; Rate 125 g/ha, Postemergence) | Plant response rating, Soybean ([15]; Rate 250 g/ha, Postemergence)
2: Plant response rating, Wheat ([5]; Rate 250 g/ha, Preemergence) | Rape plant response rating ([7]; Rate 62 g/ha, Preemergence) | Plant response rating, Nutsedge ([12]; Rate 62 g/ha, Postemergence) | Plant response rating, Nutsedge ([12]; Rate 125 g/ha, Postemergence)
0: Wheat plant response rating ([5]; Rate 62 g/ha, Preemergence) | Wheat plant response rating ([5]; Rate 125 g/ha, Preemergence) | Cocklebur plant response rating ([8]; Rate 62 g/ha, Preemergence) | Cocklebur plant response rating ([8]; Rate 125 g/ha, Preemergence) | Plant response rating, Cocklebur ([8]; Rate 250 g/ha, Preemergence) | Corn plant response rating ([9]; Rate 62 g/ha, Preemergence) | Corn plant response rating ([9]; Rate 125 g/ha, Preemergence) | Nutsedge plant response rating ([12]; Rate 62 g/ha, Preemergence) | Nutsedge plant response rating ([12]; Rate 125 g/ha, Preemergence) | Plant response rating, Nutsedge ([12]; Rate 250 g/ha, Preemergence) | Soybean plant response rating ([15]; Rate 62 g/ha, Preemergence) | Soybean plant response rating ([15]; Rate 125 g/ha, Preemergence) | Plant response rating, Soybean ([15]; Rate 250 g/ha, Preemergence)
4: Plant response rating, Rice [1, 17] | Plant response rating, Ducksalad [2, 17] | Plant response rating, Barnyardgrass [4, 17] | Plant response rating, Barnyardgrass [4, 18] | Plant response rating, Wheat ([5]; Rate 62 g/ha, Postemergence) | Plant response rating, Wheat ([5]; Rate 125 g/ha, Postemergence) | Plant response rating, Corn ([9]; Rate 250 g/ha, Postemergence) | Plant response rating, Blackgrass ([10]; Rate 125 g/ha, Postemergence) | Velvetleaf plant response rating ([11]; Rate 62 g/ha, Preemergence)
9: Plant response rating, S. Flatsedge [3, 18] | Plant response rating, Rape ([7]; Rate 62 g/ha, Postemergence) | Plant response rating, Velvetleaf ([11]; Rate 250 g/ha, Postemergence) | Plant response rating, Redroot pigweed ([13]; Rate 125 g/ha, Postemergence) | Plant response rating, Redroot pigweed ([13]; Rate 250 g/ha, Preemergence) | Plant response rating, Sugarbeets ([14]; Rate 62 g/ha, Postemergence) | Plant response rating, Sugarbeets ([14]; Rate 125 g/ha, Postemergence)
8: Plant response rating, S. Flatsedge [3, 17] | Plant response rating, Crabgrass ([6]; Rate 250 g/ha, Postemergence) | Plant response rating, Cocklebur ([8]; Rate 125 g/ha, Postemergence) | Plant response rating, Cocklebur ([8]; Rate 250 g/ha, Postemergence) | Plant response rating, Velvetleaf ([11]; Rate 125 g/ha, Postemergence) | Velvetleaf plant response rating ([11]; Rate 125 g/ha, Preemergence) | Plant response rating, Redroot pigweed ([13]; Rate 62 g/ha, Postemergence) | Redroot pigweed plant response rating ([13]; Rate 125 g/ha, Preemergence) | Sugarbeets plant response rating ([14]; Rate 125 g/ha, Preemergence)
3: Plant response rating, Rice [1, 16] | Plant response rating, Ducksalad [2, 16] | Plant response rating, Barnyardgrass [4, 16] | Plant response rating, Crabgrass ([6]; Rate 62 g/ha, Postemergence) | Crabgrass plant response rating ([6]; Rate 62 g/ha, Preemergence) | Rape plant response rating ([7]; Rate 125 g/ha, Preemergence) | Plant response rating, Corn ([9]; Rate 62 g/ha, Postemergence) | Plant response rating, Corn ([9]; Rate 125 g/ha, Postemergence) | Plant response rating, Blackgrass ([10]; Rate 62 g/ha, Postemergence) | Blackgrass plant response rating ([10]; Rate 125 g/ha, Preemergence) | Plant response rating, Nutsedge ([12]; Rate 250 g/ha, Postemergence)
10: Plant response rating, Crabgrass ([6]; Rate 250 g/ha, Preemergence) | Plant response rating, Rape ([7]; Rate 125 g/ha, Postemergence) | Plant response rating, Rape ([7]; Rate 250 g/ha, Postemergence) | Plant response rating, Velvetleaf ([11]; Rate 250 g/ha, Preemergence) | Plant response rating, Redroot pigweed ([13]; Rate 250 g/ha, Postemergence) | Plant response rating, Sugarbeets ([14]; Rate 250 g/ha, Postemergence) | Plant response rating, Sugarbeets ([14]; Rate 250 g/ha, Preemergence)
